Entries after “also recorded” stand apart in the source; their conditions may differ. Like-named read-outs stand apart in the source and are kept apart here.
Assays:
[1] = tested on: apo-myoglobin; conditions: in solution, ref [23], cited from earlier work
Description: In solution, the bi-molecular association of the heme group to apo-myoglobin is thought to follow a bimodal process. Association of heme to (partially unfolded) apo-myoglobin is fast (kA ~10^8 M^−^1·s^−^1), followed by a slower structural re-arrangement (k ~500 s^−^1) to generate natively-folded holo-myoglobin (at pH 7) in which the iron atom of the heme group is then primarily coordinated by His93 [23]. Accordingly, in-solution affinity of at least partially unfolded apo-myoglobin to the heme prosthetic group has been characterized as rather strong and the complex consisting of both compone ...

[2] = tested on: antiFLAG M2 antibody
[3] = tested on: antiTroponin I antibody [MF4]; assay: ITEM-TWO nanoESI-MS collision induced dissociation: Troponin I peptide-antiTroponin I antibody complex (gas phase); format: binding
Description: At last, we performed ITEM-TWO experiments with an epitope peptide that was derived from human cardiac Troponin I (Tn I) against which was directed a monoclonal antiTroponin I antibody (antiTn I). Generation of the immune complex in solution and subsequent electrospraying of the entire mixture started data acquisition with the respective instrument settings as mentioned (for details see Methods section). […] Again, upon raising the collision cell voltage difference there appeared isotopically resolved ions in the low m/z range of the mass spectrum for the Troponin I epitope peptide (see insert in Figure 7) which were recorded with high mass accuracy (7 ppm).
Again, plotting norm (educts) vs. ΔCV produced a sigmoidal shaped course which represented the dependence of educt intensity on ΔCV following Boltzmann characteristics (Supplemental Figure S7). The y-axis values on the tangent line, i.e., norm (educts) , enabled to calculate ln kmg# values. […] This Arrhenius plot again provided lnA (pre-exponential factor) as the intercept with the y-axis and − ΔGmg#/R as the slope of the line (Supplemental Figure S8). In the same manner as described above, the value for km0g# was calculated. Similarly, by applying the Eyring-Polanyi equation KD m0g# was determined.
The human cardiac Troponin I epitope peptide (ENREVGDWRKNIDAL; peptides&elephants, Hennigsdorf, Germany) was obtained as lyophilized powder. The peptide was dissolved in 200 mM ammonium acetate buffer, pH 7, to obtain a peptide concentration of 1.31 µg/µL. The antiTroponin I antibody [MF4] (product code ab38210; Abcam, Cambridge, UK) was obtained dissolved in PBS buffer, pH 7.4. […] Then 200 mM ammonium acetate buffer, pH 7, were added to reach a volume of 500 µL. The solution was centrifuged at 13,000 rpm for 10 min. The filtrate was discarded. To the retentate on the filter (ca. 30 µL) 470 µL of 200 mM ammonium acetate buffer, pH 7, were added to reach a total volume of 500 µL. The solution was centrifuged again. This centrifugation/re-filling procedure was repeated eight times. After the last spinning, the filter unit was inverted into a new vial and was centrifuged at 4500 rpm for 5 min to collect the retentate (52 µL). Protein concentration was determined to be 0.33 µg/µL using the Qubit^TM 2.0 Fluorometer (Carlsbad, CA, USA) assay. […] The immune complex-containing mixture was incubated at room temperature for at least 1 h. For each measurement, 3 µL of antibody-peptide complex-containing solution were loaded into nanoESI capillaries using a microloader pipette tip (Eppendorf, Hamburg, Germany).
The m/z axis was calibrated using 1 mg/mL sodium iodide dissolved in an isopropanol/water solution (50:50, v/v). […]

[4] = tested on: holo-myoglobin (apo-myoglobin—heme complex); assay: ITEM-TWO nanoESI-MS collision induced dissociation: heme loss from holo-myoglobin (gas phase); format: binding
Experimental: The mass spectral data obtained from electrospraying myoglobin (the holo-myoglobin complex consists of apo-myoglobin plus heme) were collected by following the ITEM-TWO protocol (see Methods section for in-solution handling and data acquisition steps). The ESI mass spectrum of myoglobin (Figure 4) provides an ion series of multiply charged ions from which a mean charge state of 8.1+ and an average mass of 17,566.95 ± 0.46 Da is calculated for holo-myoglobin. After having electrosprayed the myoglobin solution, and upon having switched on the collision gas and having increased the collision cell voltage difference ( ΔCV ) in a step-wise manner (5–20 V/step), dissociation of holo-myoglobin complexes caused appearance of complex-released heme ions (ligands) in the low mass ranges of the mass spectra (Supplemental Table S1). […] The m/z value of the ion that appeared in the low mass range ([heme]+) was 616.21 and corresponded precisely to the calculated values for singly protonated [heme]+ (m/z 616.18), resulting in a mass accuracy of 48 ppm.
Mean charge states of holo-myoglobin ions (m+), apo-myoglobin (n+) and heme (p+) as well as apex heights (holo-myoglobin ions (h, educts), heme ions (i, product), and apo-myoglobin ions (j, product) were extracted (Supplemental Table S2) from the triplicate measurements, averaged and normalized. For each ΔCV setting one spectrum was generated (Figure 4) and analyzed semi-quantitatively by determining Gaussian fits for all molecular/supra-molecular ion species.
All the y-values from the tangent line of the steep decline that fall within the 2dx interval around ΔCV50 are used for the calculation of ln kmg# values which are then used in the Arrhenius plot (Supplemental Figure S2). […] Then, ΔGm0g# is calculated using the van´t Hoff equation (Table 1).
A stock solution was first prepared by dissolving 5.22 mg of myoglobin (lot # 60K7007, Sigma-Aldrich, Steinheim, Germany) in 1 mL of 200 mM ammonium acetate. […] The concentration of the resulting solution was determined to be 0.5 µg/µL using a QubitTM 2.0 Fluorometer (Carlsbad, California, USA). […]

[5] = tested on: holo-myoglobin; conditions: gas phase, ref [19], cited from earlier work
Description: In that investigation, heme dissociation kinetics was studied (i) by spraying solutions with pH 5 and (ii) by looking at selected charge state pairs (e.g., 8+ protonated holo-myoglobin and 7+ charged apo-myoglobin). Activation energies ranged from 73 kJ/mol to 106 ...

[6] = "neutral and resting" complex, gas phase, Arrhenius extrapolation to 298 K (ΔCV = 0)

**Q.** What does the source list for `C=CC1=C(C)c2cc3[n-]c(cc4[n-]c(cc5nc(cc1n2)C(C)=C5C=C)c(C)c4CCC(=O)O)c(CCC(=O)O)c3C.[Fe+2]` [heme]?
**A.** k of slower structural re-arrangement to natively-folded holo-myoglobin ([1]; pH 7): ~ 500 s^−^1; kA association of heme to (partially unfolded) apo-myoglobin [1]: ~ 10^8 M^−^1·s^−^1

**Q.** Which “km0g# apparent rate constant of dissociation” value [2, 6] does the source give for DYKDDDDK [FLAG] here?
**A.** 7.9 × 10 ^10 1/s

**Q.** And the “∆CV50” value ([2]; collision cell voltage difference at center of Boltzmann fit of normalized educt intensity, peptide to antibody 2.2:1, 200 mM ammonium acetate pH 7, three determinations)?
**A.** 89.0 V

**Q.** What about the dx ([2]; half of x-axis interval (2dx) of steepest educt decline in Boltzmann fit, three determinations) of the same molecule?
**A.** 19.8 V

**Q.** What about the “binding stoichiometry, peptides bound per antibody” value ([2]; high mass range ion triplets, charge states 21+ to 27+, mixture of seven peptides, listed as FLAG peptide) of the same molecule?
**A.** one bound FLAG peptide; also recorded: two bound FLAG peptides

**Q.** What about the “peptide released from antiFLAG antibody complex (epitope identification)” value ([2]; mixture of seven peptides with antiFLAG antibody, 200 mM ammonium acetate pH 7, raised collision cell voltage) of the same molecule?
**A.** only released the FLAG peptide

**Q.** With “ENREVGDWRKNIDAL [troponin I, peptides&elephants)]” as the molecule, how does the “km0g# apparent rate constant of dissociation” value [3, 6] read?
**A.** 2.2 × 10 ^12 1/s

**Q.** What about the “∆CV50” value ([3]; collision cell voltage difference at center of Boltzmann fit of normalized educt intensity, Synapt G2S, peptide to antibody 2.2:1, 200 mM ammonium acetate pH 7, two determinations) of the same molecule?
**A.** 26.4 V

**Q.** What about the dx ([3]; half of x-axis interval (2dx) of steepest educt decline in Boltzmann fit, Synapt G2S, two determinations) of the same molecule?
**A.** 15.9 V

**Q.** And the “binding stoichiometry, peptides bound per antibody” value ([3]; high mass range ion triplets, charge states 23+ to 28+, listed as Troponin I epitope peptide)?
**A.** one bound Troponin I epitope peptide; also recorded: two bound Troponin I epitope peptides

B1: myoglobin: holo-myoglobin complex consists of apo-myoglobin plus heme; lot # 60K7007, Sigma-Aldrich (protein, UniProt P68082 2-154, looked up)
Myoglobin: GLSDGEWQQVLNVWGKVEADIAGHGQEVLIRLFTGHPETLEKFDKFKHLKTEAEMKASEDLKKHGTVVLTALGGILKKKGHHEAELKPLAQSHATKHKIPIKYLEFISDAIIHVLHSKHPGDFGADAQGAMTKALELFRNDIAAKYKELGFQG
modifications: heme
notes: holo-myoglobin complex consists of apo-myoglobin plus heme; lot # 60K7007, Sigma-Aldrich
**Q.** What does the source list for B1?
**A.** km0g# apparent rate constant of dissociation [4, 6]: 5.1 × 10 ^9 1/s; ∆CV50 ([4]; collision cell voltage difference at center of Boltzmann fit of normalized educt intensity, Q-TOF 2, 200 mM ammonium acetate pH 7, triplicate): 44.0 V; dx ([4]; half of x-axis interval (2dx) of steepest educt decline in Boltzmann fit, Q-TOF 2, triplicate): 8.5 V; activation energy for heme dissociation ([5]; 9+ protonated holo-myoglobin): 22 kcal/mol; activation energy for heme dissociation ([5]; 10+ protonated holo-myoglobin): 20.3 kcal/mol

From article PMC7587528
